# Laboratory results: patent publication US20260274861A1, “FUSED RING COMPOUND, PREPARATION METHOD THEREFOR AND MEDICINAL APPLICATION THEREOF” (JIANGSU HENGRUI PHARMACEUTICALS CO., LTD., priority 2022, published 2026)
# Experiments:
# Format in all cases: cell-based
# GP2d cells = test: Inhibition of 3D proliferation of GP2d cells (CellTiter-Glo 3D); conditions: 120 h, 5 days
# Procedure: (§1) The inhibitory effects of the compounds of the present disclosure on the KRAS target were evaluated by assessing the inhibitory effects of the compounds of the present disclosure on the 3D proliferation of GP2d and AGS cells.
# (§2) GP2d cells were cultured in a complete culture medium, namely a DMEM/high glucose culture medium (Hyclone, SH30243.01) containing 10% fetal bovine serum (Corning, 35-076-CV). On the first day of the experiment, the GP2d cells were seeded into a 96-well low-adsorption plate (Corning, CLS7007-24EA) with a complete culture medium at a density of 1000 cells/well, with each well containing 90 μL of a cell suspension. The plate was centrifuged at 2000 rpm for 5 min at room temperature and then incubated overnight in a 37° C., 5% CO2 cell incubator.
# (§3) The next day, the test compounds, serially diluted in a complete culture medium, were added at 10 μL/well. The final concentrations of the compounds for GP2d cells were 9 concentration points obtained by 5-fold serial dilution from 1 μM, and the final concentrations of the compounds for AGS cells were 9 concentration points obtained by 5-fold serial dilution from […]. A blank control containing 0.5% DMSO was set for both types of cells. The plates were incubated in a 37° C., 5% CO2 cell incubator for 5 days. On the seventh day, the 96-well cell culture plates were taken out, and 50 μL of the CellTiter-Glo® 3D Cell Viability Assay reagent (Promega, G^9682) was added to each well. The plates were shaken at room temperature in the dark for 25 min. The contents in the wells were pipetted for good uniformity, and 100 μL of the mixture was transferred from each well to a white impermeable 96-well plate (PerkinElmer, 6005290). The luminescence signal values were obtained using a multi-mode microplate reader (PerkinElmer, EnVision2105).
# AGS cells = test: Inhibition of 3D proliferation of AGS cells (CellTiter-Glo 3D); conditions: Homo sapiens, 120 h, 5 days
# Procedure: as §1
# as §2, with “AGS” for “GP2d”, “an RPM11640” for “a DMEM/high glucose culture”, “SH30809.01)” for “SH30243.01)”
# as §3
# AsPC-1 cells = test: Inhibition of 3D proliferation of AsPC-1 cells (CellTiter-Glo 3D); conditions: Homo sapiens, ASPC1, 120 h, 5 days
# Procedure: On the first day of the experiment, well-grown AsPC-1 cells with 70%-80% confluency were digested and resuspended in an RPMI 1640 culture medium (Hyclone, SH30809.01) containing 10% FBS, and the cell density was adjusted to the desired level. The cell suspension was added to a U-shaped low-adsorption 96-well plate (Corning, CLS7007-24EA) at 90 μL/well, with a cell density of 1500 cells/well. The cell plate was centrifuged at 2500 rpm for 5 min and then incubated overnight in a 37° C., 5% CO2 incubator. The next day, 20 mM test compounds dissolved in DMSO were diluted to an initial concentration of 2 mM and then serially diluted 5-fold, and a total of 9 concentration points were obtained. Control wells were set using DMSO. The serially diluted compounds were then further diluted 20-fold with a culture medium. The test compounds, diluted with the culture medium, were added to the cell plate at 10 μL/well, with the final concentrations of the compounds being 9 concentration points obtained by 5-fold serial dilution from an initial concentration of 10 μM. Cell wells containing 0.5% DMSO were set as vehicle control wells, and wells containing only the culture medium and 0.5% DMSO were set as blank control wells. A duplicate well was set for each concentration of the compounds and the control wells, with the final concentration of DMSO in each well being 0.5%. The cell plate was centrifuged at 2500 rpm for 3 min and then incubated in a 37° C., 5% CO2 incubator for 5 days. On the seventh day, the 96-well cell culture plate was taken out, and 50 μL of the CellTiter-Glo® Luminescent 3D Cell Viability Assay reagent (Promega, G^9683) was added to each well. The plates were shaken at room temperature in the dark for 25 min. The contents in the wells were pipetted up and down for good uniformity, and then 100 μL of the mixture was transferred from each well to a white impermeable OptiPlate™-96-well plate (PerkinElmer, 6005290). The luminescence signal values were obtained using a multi-mode microplate reader (PerkinElmer, EnVision2105).
# The inhibition rate was calculated using the formula: inhibition rate=(luminescence valuevehicle control well−luminescence valuetest compound)/(luminescence valuevehicle control well−luminescence valueblank control well)×100%. Curves were plotted using GraphPad Prism software based on the various concentrations of the compounds and the corresponding inhibition rates, and IC50 values for the compounds were calculated.
Structure (SMILES),IC50 (GP2d cells) [nM],IC50 (AGS cells) [nM],IC50 (AsPC-1 cells) [nM]
"CCc1c(F)ccc2cc(O)cc(-c3nc4c5c(nc(OCC6(CN7CCOCC7)CC6)nc5c3F)N3C[C@H]5CC[C@H](N5)[C@H]3[C@H](C)O4)c12 [Example 5, 5-Ethyl-6-fluoro-4-((5S,5aS,6S,9R)-1-fluoro-5-methyl-12-((1-(morpholinomethyl)cyclopropyl)methoxy)-5a,6,7,8,9,10-hexahydro-5H-4-oxa-3,10a,11,13,14-pentaaza-6,9-methanonaphtho[1,8-ab]heptalen-2-yl)naphthalen-2-ol]",0.9,8.7,5.7
"CCc1c(F)ccc2cc(O)cc(-c3nc4c5c(nc(OCC6(CN7CC/C(=C\F)C7)CC6)nc5c3F)N3C[C@H]5CC[C@H](N5)[C@H]3[C@H](C)O4)c12 [Example 11, 5-Ethyl-6-fluoro-4-((5S,5aS,6S,9R)-1-fluoro-12-((1-(((E)-3-(fluoromethylene)pyrrolidin-1-yl)methyl)cyclopropyl)methoxy)-5-methyl-5a,6,7,8,9,10-hexahydro-5H-4-oxa-3,10a,11,13,14-pentaaza-6,9-methanonaphtho[1,8-ab]heptalen-2-yl)naphthalen-2-ol]",0.7,–,–
CCc1c(F)ccc2cc(O)cc(-c3nc4c5c(nc(OCC6(CN7CC8CC(=C(F)F)CC8C7)CC6)nc5c3F)N3C[C@H]5CC[C@H](N5)[C@H]3[C@H](C)O4)c12 (stereo partly drawn) [Example 14],1.6,–,–
"C=C1CN2CC(=C)CC2(COc2nc3c4c(nc(-c5cc(O)cc6ccc(F)c(CC)c56)c(F)c4n2)O[C@@H](C)[C@@H]2[C@@H]4CC[C@H](CN32)N4)C1 [Example 17, 4-((5S,5aS,6S,9R)-12-((2,6-Dimethylenetetrahydro-1H-pyrrolizin-7a(5H)-yl)methoxy)-1-fluoro-5-methyl-5a,6,7,8,9,10-hexahydro-5H-4-oxa-3,10a,11,13,14-pentaaza-6,9-methanonaphtho[1,8-ab]heptalen-2-yl)-5-ethyl-6-fluoronaphthalen-2-ol]",0.9,–,–
"CCc1c(F)ccc2cc(O)cc(-c3nc4c5c(nc(OCC67CCCN6CC(=C(F)F)C7)nc5c3F)N3C[C@H]5CC[C@H](N5)[C@H]3[C@H](C)O4)c12 (stereo partly drawn) [Example 18, 4-((5S,5aS,6S,9R)-12-((2-(Difluoromethylene)tetrahydro-1H-pyrrolizin-7a(5H)-yl)methoxy)-1-fluoro-5-methyl-5a,6,7,8,9,10-hexahydro-5H-4-oxa-3,10a,11,13,14-pentaaza-6,9-methanonaphtho[1,8-ab]heptalen-2-yl)-5-ethyl-6-fluoronaphthalen-2-ol]",1.2,–,–
"CCc1c(F)ccc2cc(O)cc(-c3nc4c5c(nc(OCC6(CN7CCC(=CF)CC7)CC6)nc5c3F)N3C[C@H]5CC[C@H](N5)[C@H]3[C@H](C)O4)c12 [Example 23, 5-Ethyl-6-fluoro-4-((5S,5aS,6S,9R)-1-fluoro-12-((1-((4-(fluoromethylene)piperidin-1-yl)methyl)cyclopropyl)methoxy)-5-methyl-5a,6,7,8,9,10-hexahydro-5H-4-oxa-3,10a,11,13,14-pentaaza-6,9-methanonaphtho[1,8-ab]heptalen-2-yl)naphthalen-2-ol]",0.2,–,7.9
"C[C@@H]1Oc2nc(-c3cc(N)cc(Cl)c3C(F)(F)F)c(F)c3nc(OCC4(CN5CCC(=CF)CC5)CC4)nc(c23)N2C[C@H]3CC[C@H](N3)[C@@H]12 [Example 36, 3-Chloro-5-((5S,5aS,6S,9R)-1-fluoro-12-((1-((4-(fluoromethylene)piperidin-1-yl)methyl)cyclopropyl)methoxy)-5-methyl-5a,6,7,8,9,10-hexahydro-5H-4-oxa-3,10a,11,13,14-pentaaza-6,9-methanonaphtho[1,8-ab]heptalen-2-yl)-4-(trifluoromethyl)aniline]",0.06,0.9,0.2
"Cc1cc(N)c(F)c(-c2nc3c4c(nc(OCC5(CN6CCC(=CF)CC6)CC5)nc4c2F)N2C[C@H]4CC[C@H](N4)[C@H]2[C@H](C)O3)c1C(F)(F)F [Example 38, 2-Fluoro-3-((5S,5aS,6S,9R)-1-fluoro-12-((1-((4-(fluoromethylene)piperidin-1-yl)methyl)cyclopropyl)methoxy)-5-methyl-5a,6,7,8,9,10-hexahydro-5H-4-oxa-3,10a,11,13,14-pentaaza-6,9-methanonaphtho[1,8-ab]heptalen-2-yl)-5-methyl-4-(trifluoromethyl)aniline]",0.07,5,1.7
"Cc1cc(N)c(F)c(-c2nc3c4c(nc(OCC5(CN6CCC(=C(F)F)CC6)CC5)nc4c2F)N2C[C@H]4CC[C@H](N4)[C@H]2[C@H](C)O3)c1C(F)(F)F [Example 40, 3-((5S,5aS,6S,9R)-12-((1-((4-(Difluoromethylene)piperidin-1-yl)methyl)cyclopropyl)methoxy)-1-fluoro-5-methyl-5a,6,7,8,9,10-hexahydro-5H-4-oxa-3,10a,11,13,14-pentaaza-6,9-methanonaphtho[1,8-ab]heptalen-2-yl)-2-fluoro-5-methyl-4-(trifluoromethyl)aniline]",0.6,–,–
"C[C@@H]1Oc2nc(-c3ccc(F)c4sc(N)c(C#N)c34)c(F)c3nc(OCC4(CN5CCC(=C(F)F)CC5)CC4)nc(c23)N2C[C@H]3CC[C@H](N3)[C@@H]12 [Example 41, 2-Amino-4-((5S,5aS,6S,9R)-12-((1-((4-(difluoromethylene)piperidin-1-yl)methyl)cyclopropyl)methoxy)-1-fluoro-5-methyl-5a,6,7,8,9,10-hexahydro-5H-4-oxa-3,10a,11,13,14-pentaaza-6,9-methanonaphtho[1,8-ab]heptalen-2-yl)-7-fluorobenzo[b]thiophene-3-carbonitrile]",0.4,–,3.7
"Cc1nc(N)cc(-c2nc3c4c(nc(OCC5(CN6CCC(=CF)CC6)CC5)nc4c2F)N2C[C@H]4CC[C@H](N4)[C@H]2[C@H](C)O3)c1C(F)(F)F [Example 42, 4-((5S,5aS,6S,9R)-1-Fluoro-12-((1-((4-(fluoromethylene)piperidin-1-yl)methyl)cyclopropyl)methoxy)-5-methyl-5a,6,7,8,9,10-hexahydro-5H-4-oxa-3,10a,11,13,14-pentaaza-6,9-methanonaphtho[1,8-ab]heptalen-2-yl)-6-methyl-5-(trifluoromethyl)pyridin-2-amine]",0.21,5.2,1.8
